Assay results taken from BigSolDB 2.1.

Nc1nc(N)c2nc(-c3ccccc3)c(N)nc2n1
solubility (mole fraction)
Conditions | 283.15 K | 288.15 K | 293.15 K | 298.15 K | 303.15 K | 308.15 K | 313.15 K | 318.15 K | 323.15 K
in 1,2-dichloroethane | 1.72e-06 | 2.31e-06 | 3.52e-06 | 5.23e-06 | 7.52e-06 | 1.07e-05 | 1.7e-05 | 2.38e-05 | 3.55e-05
in 2-methoxyethanol | 0.00188 | 0.00248 | 0.00338 | 0.00454 | 0.00605 | 0.00792 | 0.0106 | 0.014 | 0.0181
in DMSO | – | – | 0.00201 | 0.00281 | 0.00381 | 0.00512 | 0.0068 | 0.00901 | 0.0118
in acetonitrile | 2.52e-06 | 3.43e-06 | 5.17e-06 | 7.99e-06 | 1.16e-05 | 1.61e-05 | 2.43e-05 | 3.47e-05 | 4.99e-05
in ethyl acetate | 2.91e-06 | 4.53e-06 | 7.32e-06 | 9.44e-06 | 1.42e-05 | 1.95e-05 | 2.8e-05 | 3.98e-05 | 6.09e-05
in isobutanol | 2.88e-06 | 4.02e-06 | 6.12e-06 | 8.74e-06 | 1.23e-05 | 1.71e-05 | 2.55e-05 | 3.79e-05 | 5.43e-05
in isopropanol | 2.02e-06 | 3.53e-06 | 4.92e-06 | 7.42e-06 | 1.06e-05 | 1.47e-05 | 2.08e-05 | 2.93e-05 | 4.19e-05
in methanol | 2.91e-05 | 4.31e-05 | 6.36e-05 | 8.42e-05 | 0.000127 | 0.000169 | 0.00024 | 0.00032 | 0.000449
in n-butanol | 3.32e-06 | 5.33e-06 | 8.08e-06 | 1.15e-05 | 1.61e-05 | 2.11e-05 | 3.11e-05 | 4.32e-05 | 6.48e-05
in n-methylformamide | 0.000547 | 0.000726 | 0.00103 | 0.00143 | 0.00197 | 0.00264 | 0.00353 | 0.00461 | 0.00583
in n-propanol | 4.24e-06 | 6.13e-06 | 9.12e-06 | 1.43e-05 | 2.02e-05 | 2.82e-05 | 3.88e-05 | 5.29e-05 | 7.03e-05
in water | 1.07e-06 | 1.29e-06 | 1.51e-06 | 1.79e-06 | 2.16e-06 | 2.64e-06 | 3.13e-06 | 3.76e-06 | 4.61e-06
